The conditions of data set [1]: mouse, microsomes.
Description: Metabolic stability in mouse liver microsomes assessed as clearance
In data set [2] the target is T1, DNA polymerase theta (Homo sapiens, UniProt O75417). Kind of data set: Inhibition of human DNA polymerase theta pol domain (1819 to 2590 residues) expressed in Escherichia coli BL21 (DE3) cells preincubated for 15 mins followed by DNA and dNTP addition and measured after 120 mins by Picogreen dye fluorescence intensity analysis.
Data set [3] in a line: Plasma protein binding in mouse assessed as unbound fraction by equilibrium dailysis. It is filed as ADME, cell-free.
Data set [4] in a line: fCaverage in CD-1 mouse. It is filed as ADME.
Data set [5] is described as follows: AUC in CD-1 mouse at 20 mg/kg, po measured upto 24 hrs by reverse phase LCMS analysis. It is filed as ADME, organism-based. More on the design: time < 24 hrs, dose 20 mg/kg, route po. The conditions noted are these: in vivo.
The target of data set [6] is T1, DNA polymerase theta. As to the kind of experiment: Inhibition of human DNA polymerase theta using DNA 16/19 as substrate at 0.5 nM of enzyme concentration.
Data set [7] addresses T1, DNA polymerase theta. As to the kind of experiment: Inhibition of human DNA polymerase theta using DNA 16/19 as substrate at 5 nM of enzyme concentration.
Data set [8] deals with T1, DNA polymerase theta. As to the kind of experiment: Inhibition of human DNA polymerase theta using 5'-CACTGACTGTATGATG as primer and DNA 16/19 as substrate by FRET assay.
Data set [9] addresses T1, DNA polymerase theta. As to the kind of experiment: Inhibition of human DNA polymerase theta using DNA 16/19 as substrate at 1 nM of enzyme concentration.
Data set [10] concerns the target T1, DNA polymerase theta. Kind of data set: Inhibition of human DNA polymerase theta using DNA 16/19 as substrate at 2 nM of enzyme concentration.

Each structure is given as a SMILES string. Some results are limits rather than exact numbers.

T1 sequence (O75417 whole entry, the tested form may be a part): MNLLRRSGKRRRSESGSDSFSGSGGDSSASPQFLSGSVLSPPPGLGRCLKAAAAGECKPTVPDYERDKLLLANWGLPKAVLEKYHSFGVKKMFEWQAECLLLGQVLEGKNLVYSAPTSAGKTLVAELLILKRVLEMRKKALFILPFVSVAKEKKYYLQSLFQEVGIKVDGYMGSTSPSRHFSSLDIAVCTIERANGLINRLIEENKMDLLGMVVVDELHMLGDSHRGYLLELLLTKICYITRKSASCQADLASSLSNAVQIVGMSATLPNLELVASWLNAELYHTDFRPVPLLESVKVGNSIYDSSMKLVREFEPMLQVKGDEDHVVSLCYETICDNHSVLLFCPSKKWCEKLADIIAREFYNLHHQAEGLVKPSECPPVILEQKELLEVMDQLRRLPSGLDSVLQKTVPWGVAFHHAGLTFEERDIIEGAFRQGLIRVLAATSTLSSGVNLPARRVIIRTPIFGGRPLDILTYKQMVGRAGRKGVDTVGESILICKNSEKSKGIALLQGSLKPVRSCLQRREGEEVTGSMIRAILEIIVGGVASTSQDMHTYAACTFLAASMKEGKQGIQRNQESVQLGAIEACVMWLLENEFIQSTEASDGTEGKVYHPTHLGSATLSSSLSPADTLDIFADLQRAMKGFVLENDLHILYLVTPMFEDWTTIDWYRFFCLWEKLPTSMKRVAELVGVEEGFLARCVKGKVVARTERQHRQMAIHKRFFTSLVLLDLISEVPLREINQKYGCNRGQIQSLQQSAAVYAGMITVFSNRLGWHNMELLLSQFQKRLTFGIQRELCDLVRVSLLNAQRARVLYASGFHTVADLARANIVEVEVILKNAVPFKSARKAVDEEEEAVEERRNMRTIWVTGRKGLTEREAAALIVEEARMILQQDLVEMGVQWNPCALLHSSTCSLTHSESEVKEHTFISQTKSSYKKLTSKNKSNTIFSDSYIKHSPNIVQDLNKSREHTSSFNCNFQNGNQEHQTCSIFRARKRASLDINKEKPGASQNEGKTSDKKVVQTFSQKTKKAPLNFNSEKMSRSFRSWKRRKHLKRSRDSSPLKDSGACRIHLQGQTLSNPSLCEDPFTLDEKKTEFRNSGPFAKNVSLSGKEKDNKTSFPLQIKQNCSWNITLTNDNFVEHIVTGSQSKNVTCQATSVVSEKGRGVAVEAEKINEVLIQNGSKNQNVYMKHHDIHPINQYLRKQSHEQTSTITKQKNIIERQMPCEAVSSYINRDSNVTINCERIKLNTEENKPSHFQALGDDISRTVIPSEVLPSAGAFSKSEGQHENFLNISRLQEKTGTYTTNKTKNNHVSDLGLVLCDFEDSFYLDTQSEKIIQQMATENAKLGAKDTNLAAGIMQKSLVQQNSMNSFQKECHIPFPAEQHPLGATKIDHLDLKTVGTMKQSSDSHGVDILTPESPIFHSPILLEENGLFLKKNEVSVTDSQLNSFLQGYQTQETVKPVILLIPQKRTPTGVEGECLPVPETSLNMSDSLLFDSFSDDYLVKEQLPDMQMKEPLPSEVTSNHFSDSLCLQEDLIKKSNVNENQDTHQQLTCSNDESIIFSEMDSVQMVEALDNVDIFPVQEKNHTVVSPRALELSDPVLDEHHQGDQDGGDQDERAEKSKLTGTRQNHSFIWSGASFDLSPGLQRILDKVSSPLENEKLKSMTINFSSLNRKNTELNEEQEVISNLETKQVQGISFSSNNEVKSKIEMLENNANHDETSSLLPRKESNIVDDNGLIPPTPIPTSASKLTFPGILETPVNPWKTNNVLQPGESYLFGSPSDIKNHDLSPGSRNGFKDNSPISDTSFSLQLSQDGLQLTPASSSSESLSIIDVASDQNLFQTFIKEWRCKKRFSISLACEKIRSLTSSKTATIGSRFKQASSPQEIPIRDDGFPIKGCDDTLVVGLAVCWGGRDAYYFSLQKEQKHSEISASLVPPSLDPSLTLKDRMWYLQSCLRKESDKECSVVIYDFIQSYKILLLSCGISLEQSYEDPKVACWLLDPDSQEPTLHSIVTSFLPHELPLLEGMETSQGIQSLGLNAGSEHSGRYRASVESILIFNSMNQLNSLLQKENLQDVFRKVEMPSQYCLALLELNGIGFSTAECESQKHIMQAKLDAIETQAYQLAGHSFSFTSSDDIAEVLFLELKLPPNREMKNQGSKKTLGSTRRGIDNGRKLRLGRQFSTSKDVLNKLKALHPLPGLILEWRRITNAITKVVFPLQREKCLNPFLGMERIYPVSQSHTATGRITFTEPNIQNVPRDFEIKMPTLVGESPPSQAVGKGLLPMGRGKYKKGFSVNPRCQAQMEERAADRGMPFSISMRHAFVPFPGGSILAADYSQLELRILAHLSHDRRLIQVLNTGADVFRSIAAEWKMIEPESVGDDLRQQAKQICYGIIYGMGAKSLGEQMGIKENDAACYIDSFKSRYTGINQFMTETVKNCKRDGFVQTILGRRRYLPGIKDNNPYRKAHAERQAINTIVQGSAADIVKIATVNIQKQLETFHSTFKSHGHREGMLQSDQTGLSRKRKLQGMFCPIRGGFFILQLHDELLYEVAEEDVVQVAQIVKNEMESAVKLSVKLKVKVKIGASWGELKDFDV

`CN(C(=O)Cn1nc2c(c1C(F)(F)F)CC(C)(C)C2)c1ccccc1` yielded a CLH in data set [1] greater than 555 µL/min/mg. At DNA polymerase theta [2], half-maximal inhibition (IC50) was put at 560 nM.

`CC(=O)NCC#CCN(C(=O)Cc1ccc(C(F)(F)F)cc1C(F)(F)F)c1ccccc1` came in with a CLH in data set [1] greater than 832 µL/min/mg. Besides, at DNA polymerase theta [2], the IC50 worked out at 0.82 nM.

On to `CN(C(=O)Cn1nc2c(c1C(F)(F)F)CS(=O)(=O)C2)c1ccccc1`, for which the CLH in [1] is 23 µL/min/mg. Further, on DNA polymerase theta [2], the IC50 amounted to 43000 nM.

In turn, `O=C(Cc1ccc(C(F)(F)F)cc1C(F)(F)F)N(CC#Cc1cccnc1)c1ccccc1` showed a CLH in data set [1] of 110 µL/min/mg. This compound returned a half-maximal inhibitory concentration (IC50) at DNA polymerase theta [2] of 2.5 nM.

On to `Cn1nc(N)cc1C#CCN(C(=O)Cc1ncc(C(F)(F)F)cc1C(F)(F)F)c1ccc(F)cc1`, for which it took 1.7 nM to reach half-maximal inhibition against DNA polymerase theta [2] (IC50). In addition, in data set [3], the Fu amounted to 0.044. In addition, the “f(Cave)” value in [4] came to 65 nM. Further, the AUC in data set [5] was determined as 35.6 µM·h.

With `O=C(Cc1ncc(C(F)(F)F)cc1C(F)(F)F)N(CC#Cc1ccc(C2CCNC2)cn1)c1ccc(F)cc1` (configuration not stated), the midpoint of inhibition against DNA polymerase theta [2], the IC50, lay at 0.72 nM. Besides, the Fu in data set [3] is 0.019. The “f(Cave)” value in [4] came to 30 nM. In [5], this compound came in with an area under the curve (AUC) of 38 µM·h.

As for `O=C(NCC#CCN(C(=O)Cc1ccc(C(F)(F)F)cc1C(F)(F)F)c1ccccc1)c1cccnc1`, the CLH in data set [1] is 492 µL/min/mg. On DNA polymerase theta [2], this compound yielded an IC50 of 0.2 nM.

As to `CC1CCc2nn(CC(=O)N(C)c3ccccc3)c(C(F)(F)F)c21` (configuration not stated), in data set [1], the CLH is greater than 555 µL/min/mg. At DNA polymerase theta [2], this compound displayed an IC50 of 240 nM.

Regarding `CN(C(=O)Cn1nc2c(c1C(F)(F)F)CNCC2)c1ccccc1`, the CLH in [1] is 16 µL/min/mg. For the same compound, the IC50 at DNA polymerase theta [2] is greater than 100000 nM.

As for `C#CCN(C(=O)Cc1ccc(C(F)(F)F)cc1C(F)(F)F)c1ccccc1`, the CLH in data set [1] was found to be 597 µL/min/mg. The compound also yielded an IC50 against DNA polymerase theta [2] of 14 nM.

`CN(C(=O)Cc1ccc(C2CC2)cc1C(F)(F)F)c1ccccc1` yielded an IC50 against DNA polymerase theta [2] of 40 nM.

Consider `CN(C(=O)Cn1nc(C(F)(F)F)c2c1CCCC2)c1ccccc1`, for which the IC50 against DNA polymerase theta [2] turned out to be 11000 nM.

`CN(C(=O)Cn1nc2c(c1C(F)(F)F)CCC2(C)C)c1ccccc1` gave a CLH in data set [1] greater than 832 µL/min/mg. In addition, the half-maximal inhibitory concentration (IC50) against DNA polymerase theta [2] is 2300 nM.

`Nc1ncc(C#CCN(C(=O)Cc2ncc(C(F)(F)F)cc2C(F)(F)F)c2ccc(F)cc2)cn1` displayed a half-maximal inhibitory concentration (IC50) at DNA polymerase theta [2] of 1.6 nM. In [3], the Fu is 0.015. Moreover, the “f(Cave)” value in data set [4] is 81 nM. For the same compound, in data set [5], the exposure (AUC) is 24.7 µM·h.

For `CN(C(=O)Cn1nc2c(c1C(F)(F)F)C(O)CC2)c1ccccc1` (configuration not stated), the CLH in [1] came to 46 µL/min/mg. The IC50 on DNA polymerase theta [2] was greater than 100000 nM.

`CN(C(=O)Cc1ncc(C(F)(F)F)cc1C(F)(F)F)c1ccccc1` showed an IC50 against DNA polymerase theta [2] of 65 nM.

As to `[2H]C([2H])([2H])N(C(=O)Cc1ccc(C(F)(F)F)cc1C(F)(F)F)c1ccc(F)cc1`, the CLH in [1] was determined as 52 µL/min/mg. The 50% inhibitory concentration (IC50) at DNA polymerase theta [2] came out at 19 nM.

As to `CN(C(=O)Cn1nc2c(c1C(F)(F)F)CCCC2)c1ccccc1`, in data set [1], the CLH was greater than 555 µL/min/mg.

In [1], `CN(C(=O)Cc1ccc(C(F)(F)F)cc1C(F)(F)F)c1ccc(F)cc1` gave a CLH of 125 µL/min/mg. Moreover, the IC50 against DNA polymerase theta [2] turned out to be 17 nM.

For `Cn1cncc1C#CCN(C(=O)Cc1ccc(C(F)(F)F)cc1C(F)(F)F)c1ccccc1`, the CLH in data set [1] amounted to 57 µL/min/mg. Inhibition against DNA polymerase theta [2] was half-maximal at 1.2 nM (IC50).

The compound `CN(C(=O)Cn1nc2c(c1C(F)(F)F)C(=O)NCC2)c1ccccc1` showed a CLH in data set [1] of 18 µL/min/mg. Moreover, the IC50 against DNA polymerase theta [2] is greater than 100000 nM.

The compound `CC1Cc2nn(CC(=O)N(C)c3ccccc3)c(C(F)(F)F)c2C1` (configuration not stated) registered a CLH in data set [1] greater than 832 µL/min/mg. The compound also showed a concentration for half-maximal inhibition (IC50) on DNA polymerase theta [2] of 950 nM.

`Cc1c2c(nn1CC(=O)N(C)c1ccccc1)CCC2` displayed a CLH in data set [1] of 473 µL/min/mg. In addition, on DNA polymerase theta [2], the half-inhibitory concentration (IC50) amounted to 10000 nM.

`CN(C(=O)Cn1nc2c(c1C(F)(F)F)CCC2)c1ccccc1`: the CLH in [1] is greater than 555 µL/min/mg. Also, the IC50 on DNA polymerase theta [2] worked out at 710 nM.

With `CN(C(=O)Cc1ccc(C(F)(F)F)cc1C(F)(F)F)c1ccccn1`, the CLH in data set [1] was greater than 832 µL/min/mg. This compound returned an IC50 against DNA polymerase theta [2] of 2700 nM.

Turning to `O=C(Cc1ccc(C(F)(F)F)cc1C(F)(F)F)N(CC#Cc1ncccn1)c1ccccc1`, the CLH in [1] is 105 µL/min/mg. Moreover, the half-maximal inhibitory concentration (IC50) against DNA polymerase theta [2] was 3.9 nM.

The compound `CS(=O)(=O)Cn1cc(C#CCN(C(=O)Cc2ncc(C(F)(F)F)cc2C(F)(F)F)c2ccc(F)cc2)cn1` registered an IC50 against DNA polymerase theta [2] of 0.91 nM. In [3], the Fu came out at 0.019. Also, the “f(Cave)” value in data set [4] came out at 60 nM. In data set [5], this compound gave an AUC of 76.3 µM·h.

In data set [1], `O=C(Cc1ccc(C(F)(F)F)cc1C(F)(F)F)N(CC#Cc1ccccn1)c1ccccc1` returned a CLH of 64 µL/min/mg. For the same compound, the IC50 at DNA polymerase theta [2] amounted to 2.9 nM.

In the case of `CN(C(=O)Cc1ccccc1C(F)(F)F)c1ccccc1`, the half-inhibitory concentration (IC50) against DNA polymerase theta [2] was 9200 nM.

Turning to `CN(C(=S)Cn1nc2c(c1C(F)(F)F)CCC2)c1ccccc1`, the IC50 at DNA polymerase theta [6] amounted to 8.48 nM; on DNA polymerase theta [7], 11.1 nM; against DNA polymerase theta [8], 10 nM; against DNA polymerase theta [2] it was 17 nM; against DNA polymerase theta [9], 7.49 nM; against DNA polymerase theta [10], 8.71 nM. This compound came in with a CLH in data set [1] greater than 555 µL/min/mg.

Regarding `CC(C(N)=O)n1cc(C#CCN(C(=O)Cc2ncc(C(F)(F)F)cc2C(F)(F)F)c2ccc(F)cc2)cn1` (configuration not stated), on DNA polymerase theta [2], 0.99 nM corresponded to half-maximal inhibition (IC50). Further, the Fu in data set [3] is 0.044. Besides, the “f(Cave)” value in data set [4] came out at 49 nM. The exposure (AUC) in [5] is 27 µM·h.

For `O=C(Cc1ncc(C(F)(F)F)cc1C(F)(F)F)N(CC#Cc1cnn(C2CNC2)c1)c1ccc(F)cc1`, on DNA polymerase theta [2], the midpoint of inhibition, the IC50, lay at 0.75 nM. The Fu in [3] came to 0.051. In data set [4], the “f(Cave)” value turned out to be 29 nM. For the same compound, the AUC in data set [5] turned out to be 14.1 µM·h.

Compound `O=C(Cc1ccc(C(F)(F)F)cc1C(F)(F)F)N(CC#Cc1cccc(=O)[nH]1)c1ccccc1` showed a CLH in data set [1] of 39 µL/min/mg. The same compound returned an IC50 against DNA polymerase theta [2] of 0.51 nM.

Take `CN(C(=O)Cn1nc2c(c1C(F)(F)F)C(C)(C)CC2)c1ccccc1`: the CLH in [1] is greater than 555 µL/min/mg. At DNA polymerase theta [2], this compound returned an IC50 of 520 nM.

Regarding `Cn1cnc(C#CCN(C(=O)Cc2ncc(C(F)(F)F)cc2C(F)(F)F)c2ccc(F)cc2)c1`, it took 9 nM to reach half-maximal inhibition on DNA polymerase theta [2] (IC50). Also, the Fu in [3] came to 0.018. Moreover, the “f(Cave)” value in data set [4] was 3 nM. This compound yielded an area under the curve (AUC) in data set [5] of 5.31 µM·h.

`COc1ncc(C#CCN(C(=O)Cc2ncc(C(F)(F)F)cc2C(F)(F)F)c2ccc(F)cc2)cn1` registered an IC50 against DNA polymerase theta [2] of 2.1 nM. For the same compound, the Fu in [3] is reported as 0.013. In addition, the “f(Cave)” value in data set [4] amounted to 3 nM. The compound also gave an area under the curve (AUC) in [5] of 7 µM·h.

`CN(C(=O)Cc1ccc(Cl)cc1C(F)(F)F)c1ccccc1`: inhibition at DNA polymerase theta [2] was half-maximal at 121 nM (IC50).

The compound `CN(C(=O)Cc1ccc(C(F)(F)F)cc1C(F)(F)F)c1cccnc1` gave a CLH in data set [1] of 216 µL/min/mg. For the same compound, the half-inhibitory concentration (IC50) at DNA polymerase theta [2] turned out to be 3200 nM.

In turn, `COc1ccc(C#CCN(C(=O)Cc2ncc(C(F)(F)F)cc2C(F)(F)F)c2ccc(F)cc2)nn1` returned an IC50 against DNA polymerase theta [2] of 4.9 nM. Moreover, the “f(Cave)” value in data set [4] came to 6 nM. For the same compound, the exposure (AUC) in data set [5] stood at 27.7 µM·h.

With `Cc1nnc(C(=O)NCC#CCN(C(=O)Cc2ccc(C(F)(F)F)cc2C(F)(F)F)c2ccccc2)o1`, in data set [1], the CLH was 614 µL/min/mg. At DNA polymerase theta [2], this compound registered an IC50 of 0.068 nM.

In the case of `CN(C(=O)Cc1ccc(C(F)(F)F)cc1C(F)(F)F)c1ccncc1`, the CLH in data set [1] amounted to 56 µL/min/mg. On DNA polymerase theta [2], this compound showed a half-maximal inhibitory concentration (IC50) of 2200 nM.

Consider `O=C(NCC#CCN(C(=O)Cc1ccc(C(F)(F)F)cc1C(F)(F)F)c1ccccc1)c1ccccn1`, for which the CLH in [1] was found to be 469 µL/min/mg. Also, the midpoint of inhibition against DNA polymerase theta [2], the IC50, lay at 0.4 nM.

Compound `Nc1cnc(C#CCN(C(=O)Cc2ncc(C(F)(F)F)cc2C(F)(F)F)c2ccc(F)cc2)cn1` had an IC50 against DNA polymerase theta [2] of 4.2 nM. Besides, the Fu in data set [3] is 0.018. The “f(Cave)” value in [4] was 81 nM. Further, in [5], the AUC stood at 108 µM·h.

For the compound `N#CCN(C(=O)Cc1ccc(C(F)(F)F)cc1C(F)(F)F)c1ccccc1`, the CLH in [1] was determined as 115 µL/min/mg. Also, 42 nM corresponded to half-maximal inhibition against DNA polymerase theta [2] (IC50).

Compound `CN(C(=O)Cn1c(C(F)(F)F)cc(C(F)(F)F)cc1=O)c1ccccc1` had a half-maximal inhibitory concentration (IC50) against DNA polymerase theta [2] of 58 nM.

For the origin of these results see ChEMBL document CHEMBL5108047 (J Med Chem, 2022).
